Results as given in patent US7713994B2 (Wyeth LLC, priority 2005, dated 2010).
pIC50: −log10 of the molar value.

Assays:
[1] = target: T1, cyclin D1/cdk 4 enzyme (Homo sapiens, UniProt P11802); test: CDK4 ELISA kinase assay (phospho-Rb ser 795 detection); assay type: biochemical; details: In Vitro Enzyme Assay, cyclin D1/cdk 4, read-out: CDK4 IC50
T1 construct: made in house; host or cells: Sf9 insect cells, recombinant baculovirus
Outline: (§1)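 ELISA format: plate-bound GST-Rb, 200 μM ATP, Sf9 cyclin/CDK enzyme, 1 h at 30° C; then anti-pRb Ser795 primary overnight at 4° C, HRP secondary, TMB. IC50 after no-substrate background subtraction.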

[2] = target: T2, cyclin E/CDK2 enzyme (Homo sapiens, UniProt P24941); test: CDK2 ELISA kinase assay (phospho-Rb ser 795 detection); assay type: biochemical; details: In Vitro Enzyme Assay, cyclin E/CDK2, read-out: CDK2 IC50
T2 construct: made in house; host or cells: Sf9 insect cells, recombinant baculovirus
Outline: as §1

[3] = target: T3, cyclin B/CDK1 enzyme (Homo sapiens, UniProt P06493); test: CDK1 ELISA kinase assay (phospho-Rb ser 795 detection); assay type: biochemical; details: In Vitro Enzyme Assay, cyclin B/CDK1, read-out: CDK1 IC50
T3 construct: purchased New England BioLabs; host or cells: Sf9 insect cells, recombinant baculovirus
T3 sequence (P06493 whole entry): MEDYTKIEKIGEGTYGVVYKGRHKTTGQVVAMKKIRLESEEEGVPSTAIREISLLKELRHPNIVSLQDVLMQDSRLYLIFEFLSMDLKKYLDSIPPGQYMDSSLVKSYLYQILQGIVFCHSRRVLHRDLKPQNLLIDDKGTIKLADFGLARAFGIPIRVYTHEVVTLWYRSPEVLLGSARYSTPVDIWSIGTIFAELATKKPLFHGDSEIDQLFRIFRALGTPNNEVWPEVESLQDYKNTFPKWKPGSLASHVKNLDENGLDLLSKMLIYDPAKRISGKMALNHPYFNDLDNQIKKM
T3 sequence (P14635 whole entry partner): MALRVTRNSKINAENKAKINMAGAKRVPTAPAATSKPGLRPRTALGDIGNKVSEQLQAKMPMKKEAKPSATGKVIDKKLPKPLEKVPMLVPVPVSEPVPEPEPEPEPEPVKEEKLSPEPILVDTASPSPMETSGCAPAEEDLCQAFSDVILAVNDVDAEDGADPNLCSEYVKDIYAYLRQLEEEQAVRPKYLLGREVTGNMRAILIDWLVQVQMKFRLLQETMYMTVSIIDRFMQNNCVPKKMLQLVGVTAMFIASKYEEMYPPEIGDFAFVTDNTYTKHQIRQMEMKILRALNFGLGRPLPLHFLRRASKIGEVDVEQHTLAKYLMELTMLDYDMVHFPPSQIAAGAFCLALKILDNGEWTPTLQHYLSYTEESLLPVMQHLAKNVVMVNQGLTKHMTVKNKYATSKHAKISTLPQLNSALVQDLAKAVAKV
Outline: as §1

[4] = test system: BT474; test: Cytotoxicity assay (SRB), BT474; assay type: cell-based; details: Homo sapiens, BT-474, 144 h, BT474 cells, 6 days, SRB; read-out: In Vitro Cellular Activity IC50 BT474
Outline: (§2)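 Cells seeded overnight at 37 °C, 7% CO2 (BT474 12000, HCT-116 4000, LoVo and MCF-7 6000 cells/well) in RPMI 1640 with 5% FBS, then exposed to compound dilutions for 3 days (BT474 6 days). Survival versus untreated controls by TCA fixation and SRB staining, absorbance 540 nm.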

[5] = test system: HCT-116; test: Cytotoxicity assay (SRB), HCT-116; assay type: cell-based; details: Homo sapiens, HCT-116, 72 h, HCT116 cells, 3 days, SRB; read-out: In Vitro Cellular Activity IC50 HCT116
Outline: as §2

[6] = test system: LoVo; test: Cytotoxicity assay (SRB), LoVo; assay type: cell-based; details: Homo sapiens, LoVo, 72 h, LoVo cells, 3 days, SRB; read-out: In Vitro Cellular Activity IC50 LOVO
Outline: as §2

[7] = test system: MCF-7; test: Cytotoxicity assay (SRB), MCF-7; assay type: cell-based; details: Homo sapiens, MCF7, 72 h, MCF-7 cells, 3 days, SRB; read-out: In Vitro Cellular Activity IC50 MCF-7
Outline: as §2

T1 sequence (P11802 whole entry, species assumed): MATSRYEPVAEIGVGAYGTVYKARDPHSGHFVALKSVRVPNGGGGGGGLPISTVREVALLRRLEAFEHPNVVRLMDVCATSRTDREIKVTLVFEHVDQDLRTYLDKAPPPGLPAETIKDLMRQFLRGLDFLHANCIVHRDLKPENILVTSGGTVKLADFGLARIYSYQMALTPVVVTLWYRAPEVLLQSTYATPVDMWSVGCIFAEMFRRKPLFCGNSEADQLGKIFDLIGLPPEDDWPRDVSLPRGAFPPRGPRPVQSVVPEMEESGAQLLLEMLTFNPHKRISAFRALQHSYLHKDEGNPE
T1 sequence (P24385 whole entry partner, species assumed): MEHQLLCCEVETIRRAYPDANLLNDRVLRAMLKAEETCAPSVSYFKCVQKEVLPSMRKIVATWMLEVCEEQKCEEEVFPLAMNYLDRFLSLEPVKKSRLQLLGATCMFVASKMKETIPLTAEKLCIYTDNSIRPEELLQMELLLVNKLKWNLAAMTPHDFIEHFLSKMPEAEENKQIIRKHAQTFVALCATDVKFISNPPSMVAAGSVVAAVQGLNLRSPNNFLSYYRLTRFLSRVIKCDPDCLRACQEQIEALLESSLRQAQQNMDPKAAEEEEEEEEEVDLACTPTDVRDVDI

Row | SMILES | pIC50 [1] | pIC50 [2] | pIC50 [3] | pIC50 [4] | pIC50 [5] | pIC50 [6] | pIC50 [7]
1 | O=C1NC(=O)c2ccc(-c3cccc(Cl)c3)cc2C1=CNCc1ccc(O)c(O)c1 [Example 779, 6-(3-Chloro-phenyl)-4-[(3,4-dihydroxy-benzylamino)-methylene]-4H-isoquinoline-1,3-dione] | 6.13 | 4.51 | < 4.30 | 4.69 | 4.82 | 4.85 | 4.90
2 | O=C1NC(=O)c2ccc(-c3ccccc3Cl)cc2C1=CNCc1ccc(O)c(O)c1 [Example 780, 6-(2-Chloro-phenyl)-4-[(3,4-dihydroxy-benzylamino)-methylene]-4H-isoquinoline-1,3-dione] | 6.17 | 5.42 | 4.64 | 4.75 | 4.84 | 4.74 | 4.72
3 | Cc1ccc(-c2ccc3c(c2)C(=CNCc2ccc(O)c(O)c2)C(=O)NC3=O)cc1 [Example 781, 4-[(3,4-Dihydroxy-benzylamino)-methylene]-6-p-tolyl-4H-isoquinoline-1,3-dione] | 6.13 | 4.56 | < 4.30 | 4.63 | 4.84 | 4.85 | 4.90
4 | N#Cc1cccc(-c2ccc3c(c2)C(=CNCc2ccc(O)c(O)c2)C(=O)NC3=O)c1 [Example 785, 3-{4-[(3,4-Dihydroxy-benzylamino)-methylene]-1,3-dioxo-1,2,3,4-tetrahydro-isoquinolin-6-yl}-benzonitrile] | 5.92 | 4.42 | < 4.30 | < 4.30 | < 4.30 | < 4.30 | 4.34
5 | CSc1ccc(-c2ccc3c(c2)C(=CNCc2ccc(O)c(O)c2)C(=O)NC3=O)cc1 [Example 792, 4-[(3,4-Dihydroxy-benzylamino)-methylene]-6-(4-methylsulfanyl-phenyl)-4H-isoquinoline-1,3-dione] | 6.33 | 4.65 | < 4.30 | 4.39 | 4.83 | 4.81 | 4.88
6 | CN1CCN(c2ccc(NC=C3C(=O)NC(=O)c4ccc(C=CCCCO)cc43)cc2)CC1 [Example 797, 6-(5-Hydroxy-pent-1-enyl)-4-{[4-(4-methyl-piperazin-1-yl)-phenylamino]-methylene}-4H-isoquinoline-1,3-dione] | 6.05 | < 4.30 | < 4.30 | 4.71 | 5.19 | 5.20 | 5.17
7 | COc1cccc(CC=Cc2ccc3c(c2)C(=CNCc2ccc(O)c(O)c2)C(=O)NC3=O)c1O [Example 804, 4-[(3,4-Dihydroxy-benzylamino)-methylene]-6-[3-(2-hydroxy-3-methoxy-phenyl)-propenyl]-4H-isoquinoline-1,3-dione] | 6.00 | 4.74 | 4.43 | 5.01 | 5.21 | 4.91 | 5.01
8 | CN1CCN(c2ccc(NC=C3C(=O)NC(=O)c4ccc(-c5ccc(CO)cc5)cc43)cc2)CC1 [Example 808, 6-(4-Hydroxymethyl-phenyl)-4-{[4-(4-methyl-piperazin-1-yl)-phenylamino]-methylene}-4H-isoquinoline-1,3-dione] | 6.42 | < 4.30 | < 4.30 | 5.10 | 5.80 | 5.27 | 5.07
9 | CN(C)c1ccc(-c2ccc3c(c2)C(=CNCc2ccc(O)c(O)c2)C(=O)NC3=O)cc1 [Example 816, 4-[(3,4-Dihydroxy-benzylamino)-methylene]-6-(4-dimethylamino-phenyl)-4H-isoquinoline-1,3-dione] | 6.51 | 4.62 | < 4.30 | 5.40 | 4.94 | 4.99 | 5.00
10 | O=C1NC(=O)c2ccc(-c3ccc(OC(F)(F)F)cc3)cc2C1=CNCc1ccc(O)c(O)c1 [Example 818, 4-[(3,4-Dihydroxy-benzylamino)-methylene]-6-(4-trifluoromethoxy-phenyl)-4H-isoquinoline-1,3-dione] | 6.10 | 4.52 | 4.44 | 4.64 | 4.93 | 5.13 | 4.98
11 | O=C1NC(=O)c2ccc(-c3cccc([N+](=O)[O-])c3)cc2C1=CNCc1ccc(O)c(O)c1 [Example 820, 4-[(3,4-Dihydroxy-benzylamino)-methylene]-6-(3-nitro-phenyl)-4H-isoquinoline-1,3-dione] | 5.68 | 4.57 | < 4.30 | < 4.30 | 4.38 | 4.32 | < 4.30

More lines, main results first:

Row | pIC50 [1] | pIC50 [2] | pIC50 [3] | SMILES | pIC50 [4] | pIC50 [5] | pIC50 [6] | pIC50 [7]
12 | 6.92 | 5.25 | 4.56 | O=C1NC(=O)c2ccc(-c3ccc(Cl)cc3)cc2C1=CNCc1ccc(O)c(O)c1 [Example 778, 6-(4-Chloro-phenyl)-4-[(3,4-dihydroxy-benzylamino)-methylene]-4H-isoquinoline-1,3-dione] | 4.56 | 4.92 | 5.02 | 4.99
13 | 7.22 | 5.14 | 4.56 | N#Cc1ccc(-c2ccc3c(c2)C(=CNCc2ccc(O)c(O)c2)C(=O)NC3=O)cc1 [Example 784, 4-{4-[(3,4-Dihydroxy-benzylamino)-methylene]-1,3-dioxo-1,2,3,4-tetrahydro-isoquinolin-6-yl}-benzonitrile] | < 4.30 | 5.06 | 4.45 | 4.86
14 | 6.89 | 4.55 | < 4.30 | O=C1NC(=O)c2ccc(-c3ccc4c(c3)OCO4)cc2C1=CNCc1ccc(O)c(O)c1 [Example 812, 6-Benzo[1,3]dioxol-5-yl-4-[(3,4-dihydroxy-benzylamino)-methylene]-4H-isoquinoline-1,3-dione] | < 4.30 | 4.35 | < 4.30 | 4.30
15 | 6.51 | 4.48 | < 4.30 | COc1ccc(-c2ccc3c(c2)C(=CNCc2ccc(O)c(O)c2)C(=O)NC3=O)cc1OC [Example 813, 4-[(3,4-Dihydroxy-benzylamino)-methylene]-6-(3,4-dimethoxy-phenyl)-4H-isoquinoline-1,3-dione] | 4.45 | 4.70 | 4.90 | 4.53
16 | 7.40 | 5.15 | 5.15 | O=C1NC(=O)c2ccc(-c3ccc(CO)cc3)cc2C1=CNCc1ccc(O)c(O)c1 [Example 817, 4-[(3,4-Dihydroxy-benzylamino)-methylene]-6-(4-hydroxymethyl-phenyl)-4H-isoquinoline-1,3-dione] | 4.79 | 4.33 | 4.46 | 4.60
17 | 6.85 | 4.68 | 4.62 | Nc1cccc(-c2ccc3c(c2)C(=CNCc2ccc(O)c(O)c2)C(=O)NC3=O)c1 [Example 821, 6-(3-Amino-phenyl)-4-[(3,4-dihydroxy-benzylamino)-methylene]-4H-isoquinoline-1,3-dione] | 4.60 | 4.44 | 4.30 | 4.57
18 | 6.82 | 4.72 | 4.33 | CC(=O)Nc1cccc(-c2ccc3c(c2)C(=CNCc2ccc(O)c(O)c2)C(=O)NC3=O)c1 [Example 822, N-(3-{4-[(3,4-Dihydroxy-benzylamino)-methylene]-1,3-dioxo-1,2,3,4-tetrahydro-isoquinolin-6-yl}-phenyl)-acetamide] | 4.96 | 4.57 | 4.32 | 4.77
19 | 6.66 | 5.62 | 5.03 | O=C1NC(=O)c2ccc(-c3ccc(Cl)cc3Cl)cc2C1=CNCc1ccc(O)c(O)c1 [Example 823, 6-(2,4-Dichloro-phenyl)-4-[(3,4-dihydroxy-benzylamino)-methylene]-4H-isoquinoline-1,3-dione] | 4.67 | 4.92 | 4.91 | 4.83
20 | 8.00 | 4.46 | < 4.30 | COc1ccc(CNC=C2C(=O)NC(=O)c3ccc(C=Cc4ccncc4)cc32)cc1O [Example 824, 4-[(3-Hydroxy-4-methoxy-benzylamino)-methylene]-6-(2-pyridin-4-yl-vinyl)-4H-isoquinoline-1,3-dione] | < 4.30 | 4.56 | < 4.30 | 4.48
